For 13 molecules, IC50 and EC50 results are on record in patent publication US7915291B2, “Hepatitis C virus inhibitors” (Bristol-Myers Squibb Company, priority 2002, dated 2011).

Like-named read-outs stand apart in the source and are kept apart here. Where only a bound is given, the exact number is not on record here.

Experiment [1] addresses HCV NS3/4A protease complex, BMS strain (UniProt P27958, C1454S/C1711G, species not given/STRAIN_BMS). Description: Recombinant HCV NS3/4A protease complex FRET peptide assay (BMS strain). The format is biochemical, HCV genotype 1a. The gist of the method:
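Recombinant BMS-strain NS3/4A (His-tagged NS4A with three-lysine tail, E. coli) at 2-3 nM preincubated 1 min with compound, then 2 μM ester-linked NS4A/NS4B-based FRET peptide added. Fluorescence followed in real time ~15 min at 25° C. Percent inhibition from slope of linear fluorescence change versus no-compound control.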

Experiment [2] deals with HCV replicon in Huh7 cells. Briefly: HCV replicon cell-based assay. On the set-up: species or system HCV strain 1B. Conditions: HCV replicon, Huh7 cells, read-out: EC50 range. In general terms: A replicon is a self-replicating genome or part of one, used to study replication in cells.
The mark [3] stands for this setting: NS3/4A BMS strain; read-out: IC50 range.

The IC50 is the concentration that gives 50% inhibition. What is called EC50 is the concentration needed to bring the measured effect to its halfway point. As to `C=C[C@@H]1C[C@]1(NC(=O)[C@@H]1C[C@@H](Oc2nc(-c3ccoc3)c(OC)c3ccccc23)CN1C(=O)[C@@H](NC(=O)OC(C)(C)C)C(C)(C)C)C(=O)NS(=O)(=O)C1CC1` [Compound 229, BOCNH-P3(L-t-BuGly)-P2[(4R)-(3-furan-3-yl-4methoxy -isoquinolin-1-oxo)-S-proline]-P1(1R,2S VinylAcca)-CONHSO2Cyclopropane], the 50% inhibitory concentration (IC50) in experiment [1] (setting [3]) was less than 100 nM. For the same molecule, the half-maximal effective concentration (EC50) in experiment [2] is less than 100 nM.
In the case of `C=CC1CC1(NC(=O)C1CC(Oc2nc(Br)c(O)c3ccccc23)CN1C(=O)C(NC(=O)OC(C)(C)C)C(C)(C)C)C(=O)NS(=O)(=O)C1CC1` (centres unmarked) [Compound 224], the 50% inhibitory concentration (IC50) in experiment [1] (setting [3]) is less than 100 nM. In experiment [2] (Hepatitis C virus, Huh-7), the EC50 was in the range of 100 to 1000 nM.
For `C=C[C@@H]1C[C@]1(NC(=O)[C@@H]1C[C@@H](Oc2nccc3ccccc23)CN1C(=O)[C@@H](NC(=O)[C@@H]1COc2ccccc2O1)C(C)(C)C)C(=O)NS(=O)(=O)C1CC1` [Compound 133], in that order: 100 to 1000 nM and 1000 to 10000 nM.
As for `C=C[C@@H]1C[C@]1(NC(=O)[C@@H]1C[C@@H](Oc2nccc3cc(OC)ccc23)CN1C(=O)[C@@H](NC(=O)OC1CCCC1)C(C)(C)C)C(=O)NS(=O)(=O)C1CCC1` [Compound 380], the IC50 in experiment [1] (setting [3]) is less than 100 nM. For the same molecule, the 50% effective concentration (EC50) in experiment [2] (Hepatitis C virus, Huh-7) is 100 to 1000 nM.
Regarding `C=C[C@@H]1C[C@]1(NC(=O)[C@@H]1C[C@@H](Oc2nccc3cc(OC)ccc23)CN1C(=O)C(NC(=O)OC(C)(C)C)C(C)c1ccccc1)C(=O)NS(=O)(=O)C1CC1` (single isomer, unassigned) [Compound 136], in experiment [1] (setting [3]), the concentration for half-maximal inhibition (IC50) was less than 100 nM. In addition, the EC50 in experiment [2] lay in the range of 100 to 1000 nM.
In the case of `C=C[C@@H]1C[C@]1(NC(=O)[C@@H]1C[C@@H](Oc2ncc(Cl)c3ccccc23)CN1C(=O)[C@@H](NC(=O)OC(C)(C)C)C(C)(C)C)C(=O)NS(=O)(=O)C1CC1` [Compound 281], in experiment [1] (setting [3]), the IC50 is less than 100 nM. For the same molecule, the EC50 in experiment [2] (Hepatitis C virus, Huh-7) is less than 100 nM.
With `C=C[C@@H]1C[C@]1(NC(=O)[C@@H]1C[C@@H](Oc2nc(-c3ccc(C#N)cc3)cc3ccccc23)CN1C(=O)[C@@H](NC(=O)OC(C)(C)C)C(C)(C)C)C(=O)NS(=O)(=O)C1CC1` [Compound 29], in experiment [1] (setting [3]), the IC50 is less than 100 nM. The EC50 in experiment [2] (Hepatitis C virus, Huh-7) was less than 100 nM.
On to `CC[C@@H]1C[C@]1(NC(=O)[C@@H]1C[C@@H](Oc2ncc(OC)c3ccccc23)CN1C(=O)[C@@H](NC(=O)OC(C)(C)C)C(C)(C)C)C(=O)NS(=O)(=O)C1CC1` [Compound 291], for which the concentration for half-maximal inhibition (IC50) in experiment [1] (setting [3]) is less than 100 nM. Moreover, the concentration for a half-maximal effect (EC50) in experiment [2] (Hepatitis C virus, Huh-7) is less than 100 nM.
On to `C=C[C@@H]1C[C@]1(NC(=O)[C@@H]1C[C@@H](Oc2nccc3ccccc23)CN1C(=O)[C@@H](NC(=O)CC(C)(C)C)C(C)(C)C)C(=O)NS(=O)(=O)C1CC1` [Compound 130], for which the IC50 in experiment [1] (setting [3]) is less than 100 nM. Further, in experiment [2] (Hepatitis C virus, Huh-7), the 50% effective concentration (EC50) lay in the range of 100 to 1000 nM.
The corresponding values for `C=C[C@@H]1C[C@]1(NC(=O)[C@@H]1C[C@@H](Oc2nc(-c3ccc(N(C)C)cc3)cc3ccccc23)CN1C(=O)[C@@H](NC(=O)OC(C)(C)C)C(C)(C)C)C(=O)NS(=O)(=O)C1CC1` [Compound 28] are less than 100 nM and less than 100 nM.
For `C=C[C@@H]1C[C@]1(NC(=O)[C@@H]1C[C@@H](Oc2nc(-c3cc(OC)no3)cc3cc(OC)ccc23)CN1C(=O)[C@@H](NC(=O)OC(C)(C)C)C(C)(C)C)C(=O)NS(=O)(=O)C1CC1` [Compound 38], in that order: less than 100 nM and less than 100 nM.
With `C=C[C@@H]1CC1(NC(=O)[C@@H]1CC(Oc2nccc3cc(OC)ccc23)CN1C(=O)[C@@H](NC(=O)OC1(C)CCCC1)C(C)(C)C)C(=O)NS(=O)(=O)C1CC1` (some centres unmarked) [Compound 69], the concentration for half-maximal inhibition (IC50) in experiment [1] (read-out: IC50 range; NS3/4A BMS strain) is less than 100 nM. In experiment [2] (Hepatitis C virus, Huh-7), the EC50 is less than 100 nM.
Consider `C=C[C@@H]1C[C@]1(NC(=O)[C@@H]1C[C@@H](Oc2nccc3cc(OC)ccc23)CN1C(=O)[C@@H](NC(=O)OC(C)(C)C)C1CCCCC1)C(=O)NS(=O)(=O)C1CC1` [Compound 143], for which the IC50 in experiment [1] (setting [3]) is less than 100 nM. The EC50 in experiment [2] (Hepatitis C virus, Huh-7) was less than 100 nM.
